Experimental data published in patent US9718808B2, “Inhibitors of the renal outer medullary potassium channel” (Merck Sharp & Dohme Corp., priority 2014, dated 2017).
pIC50: −log10 of the molar value.

Target: ROMK (Kir1.1) channel (Homo sapiens (Human), UniProt P48048)
Assay: Thallium Flux Assay
Type: cell-based
Description: A Thallium Flux Assay was performed on each of the final product compounds of the Examples. This assay has been described previously; see, e.g., PCT Published Application WO 2013/062900.

ROMK (Kir1.1) channel, sequence (P48048 whole entry): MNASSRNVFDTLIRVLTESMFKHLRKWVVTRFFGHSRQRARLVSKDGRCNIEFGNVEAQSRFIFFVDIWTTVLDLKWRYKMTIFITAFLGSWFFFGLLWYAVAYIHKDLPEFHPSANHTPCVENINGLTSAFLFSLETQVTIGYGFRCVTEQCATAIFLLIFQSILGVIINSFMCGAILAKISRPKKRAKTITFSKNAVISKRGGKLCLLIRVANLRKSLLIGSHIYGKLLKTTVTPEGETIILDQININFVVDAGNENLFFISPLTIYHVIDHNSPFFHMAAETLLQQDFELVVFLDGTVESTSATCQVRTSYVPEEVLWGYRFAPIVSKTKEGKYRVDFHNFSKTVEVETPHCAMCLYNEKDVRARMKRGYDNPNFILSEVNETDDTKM

pIC50 | SMILES
7.00 | CCCN(C[C@H](O)c1ccc2c(c1C)COC2=O)C1CCC2(CC1)CCN(C1=C(C)C(=O)OC1)C2=O (stereo partly drawn) [Example 132, 8-{[(2R)-2-hydroxy-2-(4-methyl-1-oxo-1,3-dihydro-2-benzofuran-5-yl)ethyl](propyl)amino}-2-(4-methyl-5-oxo-2,5-dihydrofuran-3-yl)-2-azaspiro[4.5]decan-1-one]
6.26 | CC1=C(N2CC[C@]3(CC[C@@H](NCc4ccc5c(c4)-c4nnnn4C5)CC3)C2=O)COC1=O [Example 47, (5r,8r)-2-(4-methyl-5-oxo-2,5-dihydrofuran-3-yl)-8-[(5H-tetrazolo[5,1-a]isoindol-8-ylmethyl)amino]-2-azaspiro[4.5]decan-1-one]
7.49 | CC1=C(N2CC[C@]3(CC[C@@H](NCc4ccc5c(c4C)Cn4nnnc4-5)CC3)C2=O)COC1=O [Example 54, (5r,8r)-2-(4-methyl-5-oxo-2,5-dihydrofuran-3-yl)-8-(((6-methyl-5H-tetrazolo[5,1-a]isoindol-7-yl)methyl)amino)-2-azaspiro[4.5]decan-1-one]
7.52 | CC1=C(N2CC[C@]3(CC[C@@H](N(CCO)Cc4ccc(-n5cnnn5)nc4)CC3)C2=O)COC1=O [Example 130, (5r,8r)-8-(((6-(1H-tetrazol-1-yl)pyridin-3-yl)methyl)(2-hydroxyethyl)amino)-2-(4-methyl-5-oxo-2,5-dihydrofuran-3-yl)-2-azaspiro[4.5]decan-1-one]

The next lines start with the compound.

SMILES | pIC50
CC1=C(N2CC[C@]3(CC[C@](C)(N(C)Cc4ccc(-n5cnnn5)nn4)CC3)C2=O)COC1=O [Example 115] | 7.82
C[C@H]1C[C@]2(CC[C@@H](N(C)Cc3ccc(-n4cnnn4)nn3)CC2)C(=O)N1C1=CC(=O)OC1 [Example 104, (3S,5r,8S)-8-(((6-(1H-tetrazol-1-yl)pyridazin-3-yl)methyl)(methyl)amino)-3-methyl-2-(5-oxo-2,5-dihydrofuran-3-yl)-2-azaspiro[4.5]decan-1-one] | 7.39
CC1=C(N2CC[C@]3(CC[C@@](C)(NCc4cnc(-n5cnnn5)cn4)CC3)C2=O)COC1=O [Example 69, (5r,8r)-8-(((5-(1H-tetrazol-1-yl)pyrazin-2-yl)methyl)amino)-8-methyl-2-(4-methyl-5-oxo-2,5-dihydrofuran-3-yl)-2-azaspiro[4.5]decan-1-one] | 7.82
